Data as given in US12239645B2, “Targeted dosing for the treatment of complement mediated disorders” (Achillion Pharmaceuticals, Inc., priority 2018, dated 2025).
In brackets after ≈: the same amount, converted by molar mass.

Tests used:
[1] = Compound 2 administered to humans (diurnal metabolic pattern); assay type: in vivo, human
Text: This could not have been predicted prior to human administration of the drug.

[2] = tested on: complement alternative pathway (AP) activity; assay: MAD study: ex vivo serum AP hemolysis activity and PK-PD analysis; assay type: in vivo, human; conditions: Homo sapiens; sigmoidal model, multiple ascending dose, ex-vivo AP hemolysis, FIG. 12; read-out: modeled IC90 drug plasma concentration (90% inhibition level)
Procedure: Ex vivo serum AP hemolysis assays were conducted in 96-well microtiter plates divided into two parts, one for hemolysis and the other for serum background color subtraction. Briefly, a suspension of rabbit red blood cells (RBCs) was centrifuged at 800×g at 4° C. for 3 minutes and the supernatant was removed to get rid of the RBC debris. The RBC cell pellet was re-suspended gently with pre-chilled gelatin veronal buffer (GVB0) containing 10 mM MgEGTA to a density of 5×10^8 cells/mL. Other controls including buffer, spontaneous rabbit RBC lysis, 100% RBC lysis (in water), and normal serum control were set up alongside the test samples as well. Serum was placed in a 37° C. water-bath until mostly thawed and immediately transferred to ice bath. 20% serum was prepared with GVB0-MgEGTA buffer and kept at ice bath before testing. Reactions were carried out in a 96 well plate by mixing 50 μl of 20% serum with equal volume of GVB0-MgEGTA buffer and then quickly adding 20 μl of RBC suspension. The plate was shaken on a microtiter plate shaker for 5 seconds and then incubated at 37° C. for 30 minutes. Halfway during the incubation period, the plate was shaken for another 5 seconds as described above. At the end of the incubation, the plate was centrifuged at 800×g at 4° C. for 3 minutes to pellet the un-lysed rabbit RBCs. 80 μl of supernatant was removed carefully from all wells and transferred to a clear flat-bottom microtiter plate for the measurement of optical absorbance at 405 nm (A405) in a Molecular Devices Spectramax Plus plate reader. AP hemolysis in each well was calculated relative to the activity of the NHS reference sample formulas as follows: Hemolysis (%)=((Hm−Bk)−(Sp−Bf))/((NH−BkNH)−(Sp−Bf))×100%
where Hm=A405 in the hemolysis well, Bk=A405 in the corresponding background well, Sp=mean A405 in the spontaneous hemolysis wells, Bf=mean A405 in the buffer alone wells, NH=mean A405 in the reference NHS wells, and BkNH=mean A405 in the corresponding background wells.
The PK-PD relationship was evaluated using time-matched plasma Compound 1 concentrations and serum AP inhibition values by non-linear regression with GraphPad Prism (La Jolla, CA) using the following two models: • 1. The simple Emax model to determine the 50% effective concentration (EC50): Y=E0+Emax×X/(EC50+X) where X=plasma Compound 1 concentration, Y=percent inhibition in the corresponding serum sample, E0=0% inhibition (pre-dose AP activity), and Emax=100% inhibition. • 2. The four-parameter sigmoidal model to determine EC50 and the 90% effective concentration (EC90): Y=E0+(Emax−E0)/(1+10^((Log EC50−X)×HillSlope)) where X, Y, E0, and Emax are defined as above (Emax model) and HillSlope=the slope factor or Hill slope. Pharmacodynamic and Pharmacokinetic Results AP Activity Measured with AP Hemolysis
A multiple ascending dose (MAD) study of Compound 1 with two additional single-dose cohorts was also completed. […] Secondary objectives included evaluation of the pharmacokinetic (PK) profile and the relationship between Compound 1 PK and pharmacodynamic (PD) characteristics, that is, the inhibition of complement alternative pathway (AP) activity (PK/PD). In the MAD study, multiple-dose pharmacokinetics and pharmacodynamics of Compound 1 were evaluated in four dose groups administered Compound 1 (40, 80, 120 and 200 mg BID) in the fasted state for 14-days (Table 3). Eight subjects received active drug in each group; eight subjects received placebo in the first dose group (40 mg) and two subjects received placebo in each of the other three dose groups. Two additional cohorts were administered Compound 1 at single doses of 240 mg (fasted subjects) and 120 mg (fed subjects) (Table 3). The two single-dose cohorts each comprised six subjects receiving active drug and two subjects receiving placebo. […]

| SMILES | diurnal metabolic pattern [1] | IC90 [2] |
| --- | --- | --- |
| CC(=O)c1nn(CC(=O)N2C[C@H](F)C[C@H]2C(=O)Nc2cccc(Br)n2)c2ccc(-c3cnc(C)nc3)cc12 [Compound 2, (2S,4R)-1-(2-(3-acetyl-5-(2-methylpyrimidin-5-yl)-1H-indazol-1-yl)acetyl)-N-(6-bromopyridin-2-yl)-4-fluoropyrrolidine-2-carboxamide] | does not exhibit a diurnal metabolic pattern | – |
| CC(=O)c1nn(CC(=O)N2C[C@H](F)C[C@H]2C(=O)Nc2cccc(Br)n2)c2ccc(-c3cnc(C)nc3)cc12 [Danicopan, reference compound] | – | 0.235 µg/mL (≈ 0.405 µM) |
